Data published in patent US4656184A, “2-(N-substituted hydrazone), thiazoles useful as anti-inflammatories” (priority 1982, dated 1987).
Where two headings read alike, the source gives them in different places.

Assays:
[1] = molecular target: T1, 5-lipoxygenase of the peritoneal leukocytes of rabbits (PMNs) (Oryctolagus cuniculus, UniProt G1SNX0); assay: Inhibition of the 5-lipoxygenase of the peritoneal leukocytes of rabbits (PMNs), metabolism of 14C-arachidonate; format: cell-based; settings: rabbit peritoneal PMNs; for IC50 in the PMNs, 5 HETE / IC50 in the PMNs, LTB4 / IC50: n.i. = no inhibition
T1 construct: metabolism of ^14 C-AA in the peritoneal PMNs of rabbits; endogenous in cells; host or cells: rabbit peritoneal polymorphonuclear leukocytes (suspension)
T1 sequence (G1SNX0 1-674): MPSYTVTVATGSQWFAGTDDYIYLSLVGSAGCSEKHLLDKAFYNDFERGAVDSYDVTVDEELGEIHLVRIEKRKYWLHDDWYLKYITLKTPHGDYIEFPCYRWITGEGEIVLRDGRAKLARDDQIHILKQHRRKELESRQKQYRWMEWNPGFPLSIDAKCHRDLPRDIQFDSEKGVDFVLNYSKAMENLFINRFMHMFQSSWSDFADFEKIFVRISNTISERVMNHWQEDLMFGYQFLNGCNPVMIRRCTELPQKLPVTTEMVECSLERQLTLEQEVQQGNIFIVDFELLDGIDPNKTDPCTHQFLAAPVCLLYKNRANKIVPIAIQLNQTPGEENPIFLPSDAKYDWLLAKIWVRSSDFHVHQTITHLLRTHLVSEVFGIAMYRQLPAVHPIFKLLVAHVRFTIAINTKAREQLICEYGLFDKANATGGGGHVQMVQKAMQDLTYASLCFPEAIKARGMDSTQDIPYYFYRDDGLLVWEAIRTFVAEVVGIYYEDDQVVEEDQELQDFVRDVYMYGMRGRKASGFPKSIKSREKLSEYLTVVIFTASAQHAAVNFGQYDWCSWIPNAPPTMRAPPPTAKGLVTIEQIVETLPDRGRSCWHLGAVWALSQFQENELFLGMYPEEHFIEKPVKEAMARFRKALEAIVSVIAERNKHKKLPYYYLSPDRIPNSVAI
Method: 1.1. Inhibition of the 5-lipoxygenase of the peritoneal leukocytes of rabbits (PMNs)
(§1) Preparation of a suspension of rabbit PMNs
(§2) The peritoneal leukocytes of rabbits are obtained and prepared according to the technique described by P. Borgeat and B. Samuelson (J. Biol. Chem. 254, n° 8, p. 2643, 1979).
(§3) Metabolism of ^14 C-Arachidonate
(§4) The incubation and extraction methods are those described by J. Y. Vanderhoek & co-workers (J. Biol. Chem. […], 21, 10064, 1980).
(§5) The percent inhibition of the 5-lipoxygenase is determined as a function of the concentration of each compound. The concentration of product that inhibits the metabolism by a factor of 50% (IC50) is inferred from those curves.

[2] = molecular target: T2, 12-lipoxygenase (Oryctolagus cuniculus, UniProt G1U492); assay: Inhibition of the metabolism of 14C-arachidonate in the blood platelets of rabbits: 12-lipoxygenase route (12-HETE); format: cell-based; settings: rabbit blood platelets; for IC50 in the blood platelets, 12 HETE / IC50: n.i. = no inhibition, 12 HETE
T2 construct: metabolism of ^14 C-Arachidonate in the blood platelets of rabbits; endogenous in cells; host or cells: washed rabbit blood platelets (from platelet-rich plasma)
T2 sequence (G1U492 1-663): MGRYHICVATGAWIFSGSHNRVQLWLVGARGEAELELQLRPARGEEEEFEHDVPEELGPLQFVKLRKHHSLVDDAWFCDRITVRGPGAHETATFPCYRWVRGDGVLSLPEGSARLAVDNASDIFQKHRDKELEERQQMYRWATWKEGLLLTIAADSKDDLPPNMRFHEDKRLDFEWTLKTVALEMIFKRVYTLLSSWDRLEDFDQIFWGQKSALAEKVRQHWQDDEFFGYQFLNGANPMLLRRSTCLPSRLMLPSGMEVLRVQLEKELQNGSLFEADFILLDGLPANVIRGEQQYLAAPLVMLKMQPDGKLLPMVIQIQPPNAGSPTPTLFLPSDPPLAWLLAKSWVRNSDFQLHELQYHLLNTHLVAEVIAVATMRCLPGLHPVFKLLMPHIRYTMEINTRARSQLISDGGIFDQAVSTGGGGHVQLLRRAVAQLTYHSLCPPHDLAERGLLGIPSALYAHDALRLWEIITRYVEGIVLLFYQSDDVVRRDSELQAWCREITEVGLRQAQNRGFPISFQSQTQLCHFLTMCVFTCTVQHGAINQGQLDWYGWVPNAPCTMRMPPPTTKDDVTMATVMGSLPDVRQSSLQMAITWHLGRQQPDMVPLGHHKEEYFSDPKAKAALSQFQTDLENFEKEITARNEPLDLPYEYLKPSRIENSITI
Method: (§6) 1.2. Inhibition of the metabolism of
(§7) ^14 C-Arachidonate in the blood platelets of rabbits
(§8) Preparation of a platelet-rich plasma (PRP)
(§9) A 12 ml blood sample is taken, by the intracardiac route, on ACD (anticoagulant consisting of an aqueous solution containing 0.27 g citric acid, 0.5 g disodium citrate and 0.02 g glucose per 20 ml water), at a rate of 1 volume ACD per 6 volumes blood. The blood is centrifuged at 200 g for 10 minutes and the supernatant (PRP) is collected. It is again centrifuged at 1500 g for 15 minutes. The blood-platelet sediment is washed with Buffer I (NaCl: 8 g/l, Tris: 1.21 g/l, KCl: 0.2 g/l, Gelatin: 2.5 g/l; the material is heated at 90° C. to dissolve the gelatin, after which are added glucose: 1 g/l, and N,N'-ethyleneglycol bis(β-aminoethyl ether,)tetraacetic acid or EGTA: 0.075 g/l). The suspension is centrifuged at 1500 g for 10 minutes, and the sediment is taken up into Buffer II (NaCl: 8 g/l, Tris: 1.21 g/l, KCl: 0.2 g/l, CaCl2 : 0.145 g/l, MgCl2 0.2 g/l, gelatin: 2.5 g/l; this material is heated to 90° C., after which glucose (1 g/l) is added, and the pH is adjusted to a value of 7.4 with 0.1 N HCl),
as §3
(§10) The blood-platelet suspension (0.4 ml/tube) is pre-incubated at 37° C. for 15 minutes, either with 10 μl DMSO (reference), or with varying concentrations of products to be treated dissolved in 10 μl DMSO.
(§11) The incubation is effected in the presence of ^14 C-Arachidonate (1 μg, 0.2 μCi) distributed within 0.1 ml Buffer II. It is blocked after 15 minutes by means of 50 μl citric acid and 250 μl saturated NaCl.

[3] = system: prostanoids; assay: Inhibition of the metabolism of 14C-arachidonate in the blood platelets of rabbits: prostanoids route (TxB2, HHT); format: cell-based; settings: rabbit blood platelets
Method: as §6, §7, §8, §9, §3, §10, §11

[4] = system: edema of the ear in rats; assay: Cutaneous anti-inflammatory activity: inhibition of the edema of the ear in rats following topic administration; format: in vivo; settings: rat ear edema, topical
Method: Cutaneous anti-inflammatory activity determined by the inhibition of the edema of the ear in rats following topic administration. This activity is determined by means of the method according to G. Tonelli and co-workers (Endocrinology, 1965, 77, 625-634). The effect of various concentrations of each compound is determined in at least seven rats. Inflammation is inhibited by a factor of 50% at the following concentrations: […]

[5] = system: 15 HETE; assay: Metabolism of 14C-arachidonate in rabbit peritoneal PMNs: 15 HETE; format: cell-based; settings: 15 HETE formation, n.i. = no inhibition
Method: as §1, §2, §3, §4, §5

[6] = system: leukocytic infiltration in the aqueous humor; settings: in vivo; cited from earlier work
[7] = Acute toxicity, intraperitoneal route; settings: mouse, in vivo, ip, in DMSO, 14 days observation, with confidence interval
Method: The test animals used are Swiss mice (NMRI-Han). The average weight of the male animals is 30 g, that of the females is 25 g.
The acute toxicity investigation was conducted by the intraperitoneal route.
The compounds, dissolved in DMSO, are injected under the ventral side of the peritoneum, at increasing dosages.
The reference group is administered DMSO under the same conditions (2.5 ml.kg^-1).
Following Table III gives the values of the 50% lethal dosages together with the […].

[8] = Oryctolagus cuniculus, Platelet, HHT, read-out: IC50 in the blood platelets, HHT
[9] = Oryctolagus cuniculus, Platelet, thromboxane B2, read-out: IC50 in the blood platelets, T × B2
[10] = 5 HETE formation, read-out: IC50 in the PMNs, 5 HETE
[11] = LTB4 formation, read-out: IC50 in the PMNs, LTB4
[12] = HHT, read-out: IC50 in the blood platelets, HHT
[13] = thromboxane B2, read-out: IC50 in the blood platelets, T × B2

Row | SMILES | IC50 [3, 8] | IC50 [3, 9] | IC50 [1, 10] | IC50 [1, 11] | IC50 [2] | IC50 [3, 12] | IC50 [3, 13] | other results
1 | O=C(O)c1cc(=NNc2nccs2)c2ccccc2o1 [Example 20] | 20 µM | 15 µM |  |  |  |  |  | IC50 in the PMNs, 5 HETE ([1]; 5 HETE formation): n.i.; IC50 in the PMNs, LTB4 ([1]; LTB4 formation): n.i.; IC50 in the blood platelets, 12 HETE [2]: n.i.
2 | CC(=O)Oc1ccccc1C(=O)O [Aspirin] |  |  |  |  |  |  |  | inhibition of the 12-lipoxygenase route (chromatographic profile, FIG. 3b) [2]: does not inhibit the 12-lipoxygenase route; concentration at which inflammation is inhibited by a factor of 50% ([4]; at least seven rats): 70 mg/mL; concentration at which inflammation is inhibited by a factor of 50% ([4]; molar value in parentheses): 233 µmol/mL
3 | CC(=NNc1nccs1)c1cccs1 [Example 3] |  |  | 18 µM | 7 µM | 3 µM | 20 µM | 50 µM | IC50 in the PMNs, 15 HETE [5]: n.i.
4 | C[C@@H]1C[C@H]2[C@@H]3CCC4=CC(=O)C=C[C@]4(C)[C@@]3(F)[C@@H](O)C[C@]2(C)[C@@]1(O)C(=O)CO [Dexamethasone] |  |  |  |  |  |  |  | concentration at which inflammation is inhibited by a factor of 50% ([4]; at least seven rats): 1 mg/mL; concentration at which inflammation is inhibited by a factor of 50% ([4]; molar value in parentheses): 2.5 µmol/mL
5 | CC(=NNc1nccs1)c1ccco1 [Example 3c] | > 50 µM | 10 µM | 10 µM | 2 µM | 14 µM |  |  | IC50 ([5]; Oryctolagus cuniculus): > 50 µM
6 | COc1ccc2c(c1)c(CC(=O)O)c(C)n2C(=O)c1ccc(Cl)cc1 [Indomethacin] |  |  |  |  |  |  |  | leukocytic infiltration in the aqueous humor [6]: increases leukocytic infiltration in the aqueous humor; concentration at which inflammation is inhibited by a factor of 50% ([4]; at least seven rats): no inhibition
7 | CCOC(=O)CCCC(C)=NNc1nccs1 [Example 1a] |  |  |  | 13 µM |  | 50 µM | 12 µM | IC50 in the blood platelets, 12 HETE [2]: n.i.
8 | NC(=NNc1ccccc1)c1ccccc1 [Example 21] | 10 µM | 10 µM | 20 µM | 10 µM |  |  |  | IC50 in the blood platelets, 12 HETE [2]: n.i.
9 | c1ccc2c(c1)CCCC2=NNc1nccs1 [Example 7a] |  |  | 5 µM |  |  | 15 µM | 5 µM | IC50 in the blood platelets, 12 HETE [2]: n.i.; IC50 [5]: 2 µM
10 | CC(=NNc1nccs1)c1cccs1 [Example 3d] |  |  | < 2 µM | 2 µM | 22 µM | 50 µM | 10 µM | IC50 in the PMNs, 15 HETE [5]: n.i.
11 | CC(=NNc1nccs1)c1cccs1 [Example 3b] |  |  | 10 µM | 13 µM | 10 µM | > 50 µM | 10 µM | inhibition of the metabolism of the 5-lipoxygenase route (chromatographic profile, FIG. 2b) ([1]; 50 μM): inhibition of the metabolism of the 5-lipoxygenase route; LD50 at 336 h ([7]; female Swiss mice, read-out: Parenteral LD50, female mice): 155 ± 32 mg/kg; LD50 at 336 h ([7]; male Swiss mice, read-out: Parenteral LD50, male mice): 105 ± 24 mg/kg; concentration at which inflammation is inhibited by a factor of 50% ([4]; at least seven rats): 16 mg/mL; concentration at which inflammation is inhibited by a factor of 50% ([4]; molar value in parentheses): 57 µmol/mL; IC50 [5]: 40 µM
12 | c1ccc2c(c1)CCCC2=NNc1nccs1 [Example 7] | 16 µM | 10 µM | 6 µM | 8 µM | 40 µM |  |  | IC50 ([5]; Oryctolagus cuniculus): 2 µM
13 | CC(=NNc1nccs1)c1cccs1 [Example 3a] |  |  | 15 µM |  | 30 µM | 21 µM | 13 µM | IC50 ([5]; Oryctolagus cuniculus): 40 µM
14 | CN1CCN(C(=NNc2ccccc2)c2ccccc2)CC1 [Example 23] | 25 µM | 25 µM | 25 µM | 25 µM | 25 µM |  |  | 
15 | CCOC(=O)CCCC(C)=NNc1nccs1 [Example 1] | > 50 µM |  | < 2 µM | < 2 µM | > 50 µM |  | > 50 µM | IC50 ([5]; Oryctolagus cuniculus): > 50 µM
16 | C[C@H](Cc1ccc(O)c(O)c1)[C@@H](C)Cc1ccc(O)c(O)c1 [NDGA, Nordihydroguaiaretic acid] |  |  |  |  |  |  |  | concentration at which inflammation is inhibited by a factor of 50% ([4]; at least seven rats): 12.5 mg/mL; concentration at which inflammation is inhibited by a factor of 50% ([4]; molar value in parentheses): 41 µmol/mL
17 | CC(Cn1ccnc1)=NNc1nccs1 [Example 4] | > 50 µM | > 50 µM |  |  | > 50 µM |  |  | IC50 in the PMNs, 5 HETE ([1]; 5 HETE formation): n.i.; IC50 in the PMNs, LTB4 ([1]; LTB4 formation): n.i.; IC50 ([5]; Oryctolagus cuniculus): 2 µM
18 | CC(=NNc1nccs1)c1ccccc1N [Example 15] | 25 µM | < 25 µM | < 25 µM | < 25 µM |  |  |  | IC50 in the blood platelets, 12 HETE [2]: n.i.
